US20110092544A1, “FUNGICIDAL PYRIDINES” (E.I. DU PONT DE nemours and company, priority 2008, published 2011)

What was measured:
Assay type in all cases: in vivo
[1] = test system: Septoria tritici; experiment: Test C: wheat leaf blotch, preventive spray on wheat seedlings, visual disease rating
Outline: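 Wheat seedlings sprayed to run-off with compound in acetone/water plus 250 ppm surfactant at 200 ppm (≈500 g/ha), or 40 ppm where marked; inoculated with Septoria tritici next day. Held saturated at 20 °C for 48 h, then 19 days at 20 °C; disease control rated visually 0–100 versus controls.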

[2] = test system: Septoria nodorum; experiment: Test D: wheat glume blotch, preventive spray on wheat seedlings, visual disease rating
Outline: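 Compounds in 3% acetone, then 50/50 acetone–water with 250 ppm Trem 014, sprayed to run-off at 200 ppm (500 g/ha; some at 40 ppm) one day before spore inoculation. Held 48 h saturated at 20 °C, then 7 days at 20 °C; visual rating as % disease control vs untreated (0–100).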

[3] = test system: Puccinia recondite f. sp. tritici; experiment: Test B: wheat leaf rust, preventive spray on wheat seedlings, visual disease rating
Outline: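 Wheat seedlings were sprayed to run-off with compound suspension, 200 ppm (≈500 g/ha) or 40 ppm where marked, containing surfactant in acetone/water. Inoculation with Puccinia recondita spores followed one day later, then 24 h in saturated humidity at 20° C and 7 days at 20° C. Disease control was rated visually, 0–100% versus controls.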

[4] = test system: Botrytis cinerea; experiment: Test F: tomato botrytis, preventive spray on tomato seedlings, visual disease rating
Outline: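 Tomato seedlings sprayed to run-off with compound suspended in acetone/water (50/50) plus 250 ppm Trem 014, at 200 ppm (≈500 g/ha) or 40 ppm where marked. Inoculated next day with B. cinerea spores, 48 h saturated atmosphere at 20 °C, then 3 days at 24 °C. Visual rating, 0–100% disease control relative to controls.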

[5] = test system: Erysiphe graminis f. sp. tritici; experiment: Test A: wheat powdery mildew, preventive spray on wheat seedlings, visual disease rating
Outline: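 Acetone/water (50/50) suspension with 250 ppm surfactant sprayed to run-off on wheat seedlings (200 ppm ≈ 500 g/ha); inoculated next day with E. graminis spore dust. Incubated 8 days at 20° C, then visually rated 0–100% disease control versus untreated controls; tests at 200 ppm or 40 ppm.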

[6] = test system: Alternaria solani; experiment: Test E: tomato early blight, preventive spray on tomato seedlings, visual disease rating
Outline: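 Seedlings sprayed to run-off with compound in acetone/water plus 250 ppm Trem 014 (200 ppm ≈ 500 g/ha), inoculated with spores next day. Held 48 h saturated at 27 °C, then 5 days at 20 °C; visual rating 0–100% disease control relative to controls.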

[7] = 40 ppm (compound number followed by *)
[8] = 200 ppm, 100 = 100% disease control, 0 = no control

Row | Structure (SMILES) | Test C rating (% disease control) [1, 7] [%] | Test D rating (% disease control) [2, 7] [%] | Test B rating (% disease control) [3, 7] [%] | Test F rating (% disease control) [4, 7] [%] | Test A rating (% disease control) [5, 7] [%] | Test E rating (% disease control) [6, 7] [%] | Test C rating (% disease control) [1, 8] [%] | Test D rating (% disease control) [2, 8] [%] | Test B rating (% disease control) [3, 8] [%] | Test F rating (% disease control) [4, 8] [%] | Test A rating (% disease control) [5, 8] [%] | Test E rating (% disease control) [6, 8] [%] | also measured
1 | COc1cc(OC)cc(-c2c(C(C)O)cnc(C)c2-c2c(F)ccc(OC)c2F)c1 (stereo not drawn) [Compound 116] | 95 | 0 | 89 | 99 | 94 | 99 | – | – | – | – | – | – | –
2 | COc1cc(OC)cc(-c2c(C(C)CO)cnc(C)c2-c2c(F)cccc2F)c1 (stereo not drawn) [Compound 90] | 90 | 0 | 74 | 71 | 0 | 98 | – | – | – | – | – | – | –
3 | COc1cc(OC)cc(-c2c(C3CCCC3)cnc(C)c2-c2c(F)cccc2F)c1 [Compound 67] | 95 | 0 | 100 | 99 | 100 | 99 | – | – | – | – | – | – | –
4 | COc1cc(OC)cc(-c2c(C(C)=O)cnc(C)c2-c2c(F)ccc(OC)c2F)c1 [Compound 105] | – | – | – | – | – | – | 93 | 0 | 99 | 98 | 100 | 0 | –
5 | COc1cc(OC)c(Cl)c(-c2c(CCl)cnc(C)c2-c2c(F)cc(F)cc2F)c1 [Compound 134] | 99 | 92 | 100 | 100 | 99 | 96 | – | – | – | – | – | – | –
6 | COc1cc(OC)cc(-c2c(-c3ccccc3)cnc(C)c2-c2c(F)cccc2F)c1 [Compound 87] | 95 | 0 | 96 | 72 | 98 | 0 | – | – | – | – | – | – | –
7 | C=C(C)c1cnc(C)c(-c2c(F)ccc(F)c2F)c1-c1cc(OC)cc(OC)c1 [Compound 77] | 92 | 0 | 99 | 84 | 100 | 99 | – | – | – | – | – | – | –
8 | COc1ccc(-c2c(C)ncc(C(C)C)c2-c2cc(OC)cc(OC)c2)cc1 [Compound 65] | – | – | – | – | – | – | 96 | 0 | 98 | 99 | 80 | 100 | –
9 | COc1cc(OC)cc(-c2c(C(C)(C)O)cnc(C)c2-c2c(F)ccc(OC)c2F)c1 [Compound 106] | – | – | – | – | – | – | 98 | 0 | 100 | 98 | 96 | 99 | –
10 | C=C(C)c1cnc(C)c(-c2c(F)cc(OC)cc2F)c1-c1cc(OC)cc(OC)c1 [Compound 74] | – | – | – | – | – | – | 98 | 100 | 100 | 98 | 100 | 100 | –
11 | Cc1ncc(-c2ccccc2F)c(-c2cc(OC(F)F)cc(OC(F)F)c2)c1-c1ccc(F)cc1 [Compound 101] | – | – | – | – | – | – | 96 | 0 | 89 | 96 | 82 | 0 | –
12 | COc1cc(OC)cc(-c2c(C(C)=NO)cnc(C)c2-c2c(F)cc(F)cc2F)c1 (single isomer, unassigned) [Compound 114] | 99 | 69 | 99 | 99 | 89 | 94 | – | – | – | – | – | – | –
13 | C=C(C)c1cnc(CC)c(-c2ccccc2)c1-c1cc(OC)cc(OC)c1 [Compound 29] | 98 | 0 | 0 | 80 | 91 | 91 | – | – | – | – | – | – | –
14 | COc1cc(OC)cc(-c2c(C(O)C(C)C)cnc(C)c2-c2c(F)cc(F)cc2F)c1 (stereo not drawn) [Compound 103] | – | – | – | – | – | – | 95 | 98 | 100 | 99 | 100 | 100 | –
15 | COc1cc(OC)cc(-c2c(COc3ccccc3)cnc(C)c2-c2c(F)cc(F)cc2F)c1 [Compound 109] | – | – | – | – | – | – | 97 | 0 | 97 | 92 | 98 | 0 | –
16 | Cc1nc(C#N)c(C)c(-c2ccc(Cl)cc2)c1-c1c(F)cccc1F [Compound 143] | 100 | 0 | 97 | 28 | 99 | 97 | – | – | – | – | – | – | –
17 | COc1cc(OC)cc(-c2c(-c3cccs3)cnc(C)c2-c2c(F)cc(F)cc2F)c1 [Compound 132] | 99 | 97 | 99 | 99 | 90 | 93 | – | – | – | – | – | – | –
18 | COc1cc(OC)cc(-c2c(C(C)=NO)cnc(C)c2-c2c(F)cc(F)cc2F)c1 (single isomer, unassigned) [Compound 117] | 99 | 82 | 100 | 99 | 93 | 99 | – | – | – | – | – | – | –
19 | COc1cc(OC)cc(-c2c(-c3ccccc3)cnc(C)c2-c2c(F)cc(F)cc2F)c1 [Compound 121, 4-(3,5-dimethoxyphenyl)-2-methyl-5-phenyl-3-(2,4,6-trifluorophenyl)pyridine] | – | – | – | – | – | – | – | – | – | – | – | – | pest or weed control at 40 ppm ([1]; Zymoseptoria tritici, 504 h, 40 ppm (compound number followed by *)): 99%; pest or weed control at 40 ppm ([2]; Parastagonospora nodorum, 216 h, 40 ppm (compound number followed by *)): 94%; pest or weed control at 40 ppm ([3]; 192 h, 40 ppm (compound number followed by *)): 100%; pest or weed control at 40 ppm ([4]; Botrytis cinerea, 120 h, 40 ppm (compound number followed by *)): 100%; pest or weed control at 40 ppm ([5]; Blumeria graminis, 192 h, 40 ppm (compound number followed by *)): 99%; pest or weed control at 40 ppm ([6]; Alternaria solani, 168 h, 40 ppm (compound number followed by *)): 99%
